Drawing on patent publication US20140242120A1, “SUBSTITUTED AROMATIC COMPOUNDS FOR INFLAMMATION AND IMMUNE-RELATED USES” (Synta Pharmaceuticals Corp., priority 2006, published 2014), this text covers IC50 for five compounds.

Some results are limits rather than exact numbers.

For this assay, the system named is IL-2 production. Nature of the assay: Inhibition of IL-2 production in PHA-activated Jurkat cells (ELISA). Type of assay: cell-based. The conditions noted are these: Homo sapiens, PHA 2.5 μg/mL, 20 hours, IL-2 ELISA. On the procedure:
Jurkat cells were placed in a 96 well plate (0.5 million cells per well in 1% FBS medium) then a test compound of this invention was added at different concentrations. After 10 minutes, the cells were activated with PHA. (final concentration 2.5 μg/mL) and incubated for 20 hours at 37° C. under CO2. The final volume was 200 μL. Following incubation, the cells were centrifuged and the supernatants collected and stored at −70° C. prior to assaying for IL-2 production. A commercial ELISA kit (IL-2 Eli-pair, Diaclone Research, Besancon, France) was used to detect production of IL-2, from which dose response curves were obtained. The IC50 value was calculated as the concentration at which 50% of maximum IL-2 production after stimulation was inhibited versus a non-stimulation control.
(ELISA stands for enzyme-linked immunosorbent assay.)
Regarding `Cc1ccc(-c2ncco2)cc1-c1ccc(NS(=O)(=O)c2c(F)cccc2F)cc1` [Compound 1, 2,6-Difluoro-N-(2′-methyl-5′-oxazol-2-yl-biphenyl-4-yl)-benzenesulfonamide], the IC50 (in general, the concentration that gives 50% inhibition) was in the range of 50 to 500 nM. Next, `Cc1ccc(-c2cnco2)cc1-c1ccc(NC(=O)Nc2c(F)cccc2F)cc1` [Compound 4, 1-(2,6-Difluoro-phenyl)-3-(2′-methyl-5′-oxazol-5-yl-biphenyl-4-yl)-urea]: under 25 nM.

`Cc1ccc(-c2ncco2)cc1-c1ccc(NC(=O)Nc2ncncc2C)cc1` [Compound 74, 1-(2′-Methyl-5′-(oxazol-2-yl)biphenyl-4-yl)-3-(5-methylpyrimidin-4-yl)urea] had an IC50 of 25 to 50 nM. Next, `Cc1ccc(-c2ncco2)cc1-c1ccc(/N=C/c2c(F)cccc2F)cc1` [Compound 76, (E)-N-(2,6-difluorobenzylidene)-2′-methyl-5′-(oxazol-2-yl)biphenyl-4-amine]: 500 to 1000 nM; `COC(=O)c1ccc(C)c(-c2ccc(NNC(=O)c3c(F)cccc3F)cc2)c1` [Compound 77, methyl 4′-(2-(2,6-difluorobenzoyl) hydrazinyl)-6-methylbiphenyl-3-carboxylate]: 50 to 500 nM.
